Values joined by “and” are separate entries in the source; they are usually repeats but may differ in a detail not shown here. Equal entries are not always repeated. “Also recorded” adds a separate entry of the source.
System: Wistar rats
Test: Sleep promoting properties in Wistar rats, video monitoring of home cage activity (total sleep time, latency to sleep, number of sleep episodes)
Assay type: in vivo
Settings: for Total Sleep time: 180 min recording
Protocol: Sublingual dexmedetomidine formulation of present invention was tested in rats for its ability to increase the amount of sleep or decrease sleep interruption or both without undesired effects. Test animals' activity was continuously monitored by using a video camera overhead and data analysed for latency of sleep, total sleep time and number of sleep episodes by using the NoldusEthovision-XT 11.
Male Wistar rats were approximately of the weight 180 g-220 g and age of about 5-7 weeks old. Animals were numbered and kept in acclimatization for a period of 5-7 days before the initiation of the experiment. All the experiments on animals were conducted in accordance with the guidelines of the Committee for the Purpose of Control and Supervision of Experiments on Animals (CPCSEA), Goveemment of India the Association for Assessment and Accreditation of Laboratory Animal Care intemational (AAALAC).
Recording Environment: Animals were housed group wise (three animals per cage) within a microisolator cage modified with an inserted polycarbonate filter-top riser to allow more vertical headroom. Animals were maintained on the normal rodent chow ad libitum and given free access to fresh autoclaved potable drinking water. Animals were kept in a controlled environmental condition with 22±3° C. temperature, 50±20% humidity, a light dark cycle of 12 hours each and 15-20 fresh air changes per hour.
Animal Groups: Wistar rats were randomly divided into different groups, each containing 6 animals. The study groups were divided as normal control group, vehicle control group, test compound groups and reference compound group.
Animals were weight once at randomization and each day thereafter. The animals were studied from day 1 till day 9. […] On day 3, animals were dosed with test compounds and respiratory parameters such as tidal volume, frequency of respiration: heart rate and blood pressure were recorded. On day 5 and day 6, animals were trained on the rotarod apparatus (4-40 rpm for 300 s). On day 7, animals were administered with test compounds and motor coordination was tested on rotarod at 3, 10, 17, 24 and 30 minutes post administration to establish a temporal scale of loss of motor activity and drowsiness. On day 9, animals were dosed with test compounds and blood was collected at 15, 30, 60 and 120 min post sublingual dosing to estimate plasma drug concentration of dexmedetomidine. All the animals were euthanized by CO2 inhalation on day 9. The animal in the satellite groups was dosed with test compounds and blood was collected on day 0 at 15, 30, 60, and 120 min post sublingual dosing to estimate plasma drug concentration of dexmedetomidine after first drug exposure.
The normal control group received no treatment: vehicle control group received 0.9% saline water; the test group received compound (dexmedetomidine), administered sublingually in different doses (dose 1-5.14 μg/kg of body weight, dose 2-10 μg/kg of body weight, dose 3-20 μg/kg of body weight, dose 4-30 μg/kg of body weight and dose 5-40 μg/kg of body weight) and also administered parenterally (dose 6-1.5 μg kg of body weight); and the reference compound (Zolpidem) was administered orally in dose of 30 mg/kg of body weight. The treatment was given such that no rat received the same treatment twice.
Total sleep time, latency to sleep and number of sleep episodes were measured: After administration of each dose to each group of animal, the latency to sleep, total sleep time and sleep episodes was recorded.
One way ANOVA test was applied for the comparison of the data from different groups for total sleep time, latency to sleep and number of sleep episodes.

[1] = Table 2, Dose 1 (5.14 μg/kg, SL)
[2] = Table 2, Dose 6 (1.5 μg/kg, I.V.)
[3] = group mean, Dose 1 (5.14 μg/kg Dexmedetomidine SL)
[4] = group mean, Dose 2 (10 μg/kg Dexmedetomidine SL)
[5] = group mean, Dose 3 (20 μg/kg Dexmedetomidine SL)
[6] = group mean, Dose 4 (30 μg/kg Dexmedetomidine SL)
[7] = group mean, Dose 5 (40 μg/kg Dexmedetomidine SL)
[8] = group mean, Dose 6 (1.5 μg/kg Dexmedetomidine I.V.)
[9] = individual animals, Dose 1 (5.14 μg/kg Dexmedetomidine SL)
[10] = individual animals, Dose 2 (10 μg/kg Dexmedetomidine SL)
[11] = individual animals, Dose 3 (20 μg/kg Dexmedetomidine SL)
[12] = individual animals, Dose 4 (30 μg/kg Dexmedetomidine SL)
[13] = individual animals, Dose 5 (40 μg/kg Dexmedetomidine SL)
[14] = individual animals, Dose 6 (1.5 μg/kg Dexmedetomidine I.V.)
[15] = parenteral dexmedetomidine (1.5 μg/kg, p.o.), compared to vehicle control
[16] = Table 2, Zolpidem (30 mg/kg, p.o.)
[17] = group mean, Zolpidem (30 mg/kg), orally
[18] = individual animals, Zolpidem (30 mg/kg), orally

**Q.** Which results are given for `Cc1cccc([C@H](C)c2cnc[nH]2)c1C` [Dexmedetomidine, 5-[(1 S)-1-(2,3-dimethylphenyl)ethyl]-1 H-imidazole]?
**A.** Latency to Sleep (Mean and SEM) [1]: 63.2; Number of Sleep Episodes (Mean and SEM) [1]: 2.33; Total Sleep Time (Mean and SEM) [1]: 100.7; Latency to Sleep (Mean and SEM) (Table 2, Dose 2 (10 μg/kg, SL)): 21.0; Number of Sleep Episodes (Mean and SEM) (Table 2, Dose 2 (10 μg/kg, SL)): 4.50; Total Sleep Time (Mean and SEM) (Table 2, Dose 2 (10 μg/kg, SL)): 130.1; Latency to Sleep (Mean and SEM) (Table 2, Dose 3 (20 μg/kg, SL)): 12.7; Number of Sleep Episodes (Mean and SEM) (Table 2, Dose 3 (20 μg/kg, SL)): 4.00; Total Sleep Time (Mean and SEM) (Table 2, Dose 3 (20 μg/kg, SL)): 150.2; Latency to Sleep (Mean and SEM) (Table 2, Dose 4 (30 μg/kg, SL)): 13.2; Number of Sleep Episodes (Mean and SEM) (Table 2, Dose 4 (30 μg/kg, SL)): 2.50; Total Sleep Time (Mean and SEM) (Table 2, Dose 4 (30 μg/kg, SL)): 143.1; Latency to Sleep (Mean and SEM) (Table 2, Dose 5 (40 μg/kg, SL)): 16.7; Number of Sleep Episodes (Mean and SEM) (Table 2, Dose 5 (40 μg/kg, SL)): 2.67; Total Sleep Time (Mean and SEM) (Table 2, Dose 5 (40 μg/kg, SL)): 169.7; Latency to Sleep (Mean and SEM) [2]: 25.4; Number of Sleep Episodes (Mean and SEM) [2]: 2.33; Total Sleep Time (Mean and SEM) [2]: 137; Latency to Sleep (Time of sleep onset), result in words (dexmedetomidine dosed sublingually at 10, 20, 30 & 40 μg/kg, compared to vehicle control): significantly lowered; also recorded: significantly reduced; Number of sleep episodes, result in words (dexmedetomidine dosed sublingually, from 10, 20, 30 & 40 μg/kg, compared to vehicle control): gradually decreased; Latency to Sleep [3]: 63.17; Number of Sleep Episodes [3]: 2.33; Total Sleep time Normalized to Vehicle* [3]: 100.71; Total Sleep time [3]: 47.67 min; Latency to Sleep [4]: 21.00; Number of Sleep Episodes [4]: 4.50; Total Sleep time Normalized to Vehicle* [4]: 130.13; Total Sleep time [4]: 103.67 min; Latency to Sleep [5]: 12.67; Number of Sleep Episodes [5]: 4.00; Total Sleep time Normalized to Vehicle* [5]: 150.21; Total Sleep time [5]: 119.67 min; Latency to Sleep [6]: 13.17; Number of Sleep Episodes [6]: 2.50; Total Sleep time Normalized to Vehicle* [6]: 143.10; Total Sleep time [6]: 114.00 min; Latency to Sleep [7]: 16.67; Number of Sleep Episodes [7]: 2.67; Total Sleep time Normalized to Vehicle* [7]: 169.67; Total Sleep time [7]: 135.17 min; Latency to Sleep [8]: 25.40; Number of Sleep Episodes [8]: 2.33; Total Sleep time Normalized to Vehicle* [8]: 136.98; Total Sleep time [8]: 64.83 min; Latency to Sleep [9]: 97 and 101 and 87 and 94 and 0 (2×); Number of Sleep Episodes [9]: 2 (2×) and 5 (2×) and 0 (2×); Total Sleep time Normalized to Vehicle* [9]: 184 and 203 and 125 and 93 and 0 (2×); Total Sleep time [9]: 87 min and 96 min and 59 min and 44 min and 0 min (2×); Latency to Sleep [10]: 18 (2×) and 29 and 21 and 24 and 16; Number of Sleep Episodes [10]: 5 (4×) and 4 and 3; Total Sleep time Normalized to Vehicle* [10]: 128 and 102 and 108 and 141 and 152 and 151; Total Sleep time [10]: 102 min and 81 min and 86 min and 112 min and 121 min and 120 min; Latency to Sleep [11]: 15 (2×) and 12 and 13 and 10 and 11; Number of Sleep Episodes [11]: 5 and 3 and 4 (4×); Total Sleep time Normalized to Vehicle* [11]: 133 and 174 and 143 and 142 and 181 and 128; Total Sleep time [11]: 106 min and 139 min and 114 min and 113 min and 144 min and 102 min; Latency to Sleep [12]: 11 (2×) and 23 and 8 and 10 and 16; Number of Sleep Episodes [12]: 4 and 2 (4×) and 3; Total Sleep time Normalized to Vehicle* [12]: 162 and 127 and 158 (2×) and 136 and 118; Total Sleep time [12]: 129 min and 101 min and 126 min (2×) and 108 min and 94 min; Latency to Sleep [13]: 16 (2×) and 17 and 18 and 13 and 20; Number of Sleep Episodes [13]: 2 (3×) and 4 and 3 (2×); Total Sleep time Normalized to Vehicle* [13]: 181 and 134 and 186 and 190 and 159 and 168; Total Sleep time [13]: 144 min and 107 min and 148 min and 151 min and 127 min and 134 min; Latency to Sleep [14]: 18 and 27 and 26 and 24 and 85 and 32; Number of Sleep Episodes [14]: 3 (3×) and 1 and 2 (2×); Total Sleep time Normalized to Vehicle* [14]: 180 and 184 and 95 and 129 and 177 and 57; Total Sleep time [14]: 85 min and 87 min and 45 min and 61 min and 84 min and 27 min; Latency to Sleep (Time of sleep onset), result in words [15]: significantly lowered; Number of sleep episodes, result in words [15]: gradually decreased; Total sleep time, result in words (sublingual dexmedetomidine at dose range of 10 to 40 μg/kg): no significant increase; also recorded: not significantly affecting; Total Sleep Time (total duration of sleep in 180 min.), result in words (sublingual dexmedetomidine, 40 μg/kg): significant increase

**Q.** With `Cc1ccc(-c2nc3ccc(C)cn3c2CC(=O)N(C)C)cc1` [Zolpidem] as the molecule, how does the “Latency to Sleep (Mean and SEM)” value [16] read?
**A.** 27.0

**Q.** What about the “Number of Sleep Episodes (Mean and SEM)” value [16] of the same molecule?
**A.** 3.83

**Q.** And the “Total sleep time normalized to vehicle” value [16]?
**A.** 183.8

**Q.** What about the “Total Sleep Time (total duration of sleep in 180 min.), result in words” value (Zolpidem at the standard dose, compared to NC and Vehicle control) of the same molecule?
**A.** significant increase

**Q.** What about the “Latency to Sleep (Time of sleep onset), result in words” value (Zolpidem, compared to normal and vehicle control) of the same molecule?
**A.** reduction in the sleep latency

**Q.** And the “Latency to Sleep” value [17]?
**A.** 27.00

**Q.** What about the “Number of Sleep Episodes” value [17] of the same molecule?
**A.** 3.83

**Q.** What about the “Total Sleep time Normalized to Vehicle*” value [17] of the same molecule?
**A.** 183.82

**Q.** And the “Total Sleep time” value [17]?
**A.** 87.00 min

**Q.** And the “Latency to Sleep” value [18]?
**A.** 24 (2×) and 28 and 26 and 23 and 37

**Q.** What about the “Number of Sleep Episodes” value [18] of the same molecule?
**A.** 3 (3×) and 6 and 4 (2×)

**Q.** And the “Total Sleep time Normalized to Vehicle*” value [18]?
**A.** 247 and 260 and 167 and 205 and 114 and 110

**Q.** And the “Total Sleep time” value [18]?
**A.** 117 min and 123 min and 79 min and 97 min and 54 min and 52 min

Reference: patent US20250099430A1, “PREVENTION OR TREATMENT OF SLEEP DISORDERS USING DEXMEDETOMIDINE FORMULATION” (BioXcel Therapeutics, Inc., priority 2014, published 2025)
